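How tested: cells in 96-well plates exposed to compound for 48 hours at five concentrations. Here, GI50 denotes the concentration required for 50% inhibition of growth.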 Activity calls are given as the source filed them. No stated cut-off is given here; in the data, active = GI50 up to about 1.1 µM and inactive = higher.
Key:
Assay in all cases: NCI anticancer screen, dose series, 48 h
COLO 205 = test system: COLO 205
HCC 2998 = test system: HCC 2998
HCT-116 = test system: HCT-116
HOP-62 = test system: HOP-62
MCF7 = test system: MCF7
MDA-MB-435 = test system: MDA-MB-435
NCI-H226 = test system: NCI-H226
NCI-H460 = test system: NCI-H460
OVCAR-4 = test system: OVCAR-4
OVCAR-8 = test system: OVCAR-8
PC-3 = test system: PC-3
SNB-19 = test system: SNB-19
SNB-75 = test system: SNB-75
U-251 = test system: U-251
UACC-257 = test system: UACC-257
UACC-62 = test system: UACC-62
UO-31 = test system: UO-31
OVCAR-3 = test system: OVCAR-3
SF-539 = test system: SF-539

Measured: GI50

CC12CCC(C1)C(C)(C)C2OC(=O)c1ccccc1C(=O)O (stereo unspecified)
inactive: COLO 205 > 100 µM | HCC 2998 > 100 µM | HCT-116 > 100 µM | HOP-62 34.7 µM | MCF7 > 100 µM | MDA-MB-435 > 100 µM | NCI-H226 > 100 µM | NCI-H460 > 100 µM | OVCAR-4 > 100 µM | OVCAR-8 > 100 µM | PC-3 > 100 µM | SNB-19 > 100 µM | SNB-75 > 100 µM | U-251 > 100 µM | UACC-257 > 100 µM | UACC-62 > 100 µM | UO-31 > 100 µM

O=C1C(c2c(O)[nH]c3ccc(Br)cc23)=Nc2ccc(Br)cc21
inactive: COLO 205 > 100 µM | HCC 2998 > 100 µM | HCT-116 18 µM | HOP-62 42.1 µM | MCF7 13.6 µM | MDA-MB-435 40.7 µM | NCI-H226 > 100 µM | NCI-H460 37 µM | OVCAR-3 > 100 µM | OVCAR-4 53.7 µM | OVCAR-8 27.1 µM | PC-3 51.3 µM | SNB-19 30.1 µM | SNB-75 19.7 µM | U-251 18.7 µM | UACC-257 > 100 µM | UACC-62 > 100 µM | UO-31 > 100 µM

CC(=O)N[C@@H](Cc1ccc(O)cn1)C(=O)NCc1cccc(F)c1
inactive: COLO 205 > 100 µM | HCC 2998 > 100 µM | HCT-116 > 100 µM | HOP-62 > 100 µM | MCF7 > 100 µM | MDA-MB-435 > 100 µM | NCI-H226 > 100 µM | NCI-H460 > 100 µM | OVCAR-3 > 100 µM | OVCAR-4 > 100 µM | PC-3 > 100 µM | SF-539 > 100 µM | SNB-19 > 100 µM | U-251 > 100 µM | UACC-257 > 100 µM | UACC-62 > 100 µM | UO-31 > 100 µM

CC1(O)CC(C(F)(F)F)(C(F)(F)F)OC1=O (stereo unspecified)
inactive: COLO 205 > 10 µM | HCC 2998 > 10 µM | HCT-116 > 10 µM | HOP-62 > 10 µM | MCF7 > 10 µM | MDA-MB-435 > 10 µM | NCI-H226 > 10 µM | NCI-H460 > 10 µM | OVCAR-3 > 10 µM | OVCAR-4 > 10 µM | OVCAR-8 > 10 µM | PC-3 > 10 µM | SF-539 > 10 µM | SNB-19 > 10 µM | U-251 > 10 µM | UACC-257 > 10 µM | UACC-62 > 10 µM | UO-31 > 10 µM

CCc1cc(O)c(Cl)c(C)c1Cl
inactive: COLO 205 21.4 µM | HCC 2998 15.2 µM | HCT-116 16.1 µM | HOP-62 18.7 µM | MCF7 23.2 µM | MDA-MB-435 16.4 µM | NCI-H460 15.6 µM | OVCAR-3 18.2 µM | OVCAR-4 15.1 µM | OVCAR-8 18.2 µM | PC-3 19.5 µM | SF-539 18.2 µM | SNB-19 30.3 µM | SNB-75 18.9 µM | U-251 18 µM | UACC-257 17.2 µM | UACC-62 15.1 µM | UO-31 19.1 µM

O=C(O)Cn1ncn(NC(=O)Cc2ccccc2)c1=S
inactive: COLO 205 > 10 µM | HCC 2998 > 10 µM | HCT-116 > 10 µM | HOP-62 > 10 µM | MCF7 > 10 µM | MDA-MB-435 > 10 µM | NCI-H460 > 10 µM | OVCAR-3 > 10 µM | OVCAR-4 > 10 µM | OVCAR-8 > 10 µM | PC-3 > 10 µM | SF-539 > 10 µM | SNB-19 > 10 µM | SNB-75 > 10 µM | U-251 > 10 µM | UACC-257 > 10 µM | UACC-62 > 10 µM | UO-31 > 10 µM

c1ccc(C2=NN=C3C(c4ccccc4)=Nc4ccccc4N3C2)cc1
inactive: COLO 205 20.5 µM | HCC 2998 22.4 µM | HCT-116 10.8 µM | HOP-62 27 µM | MCF7 20 µM | MDA-MB-435 17.7 µM | NCI-H226 14.9 µM | NCI-H460 5.07 µM | OVCAR-3 3.37 µM | OVCAR-4 4.58 µM | OVCAR-8 10 µM | PC-3 21.5 µM | SF-539 39.5 µM | SNB-19 24.2 µM | U-251 14.3 µM | UACC-257 7.55 µM | UACC-62 30.3 µM | UO-31 7.43 µM

CC1=CCC(=O)[C@]2(C)C(CC(=O)O)[C@]3(C)C4=C(C)C(c5ccoc5)C[C@@H]4O[C@@H]3[C@H](O)[C@@H]12 (stereo partly specified)
inactive: COLO 205 > 100 µM | HCC 2998 > 100 µM | HCT-116 > 100 µM | MCF7 > 100 µM | MDA-MB-435 > 100 µM | NCI-H460 > 100 µM | OVCAR-3 > 100 µM | OVCAR-4 > 100 µM | OVCAR-8 > 100 µM | PC-3 > 100 µM | SF-539 > 100 µM | SNB-19 > 100 µM | SNB-75 > 100 µM | U-251 > 100 µM | UACC-257 > 100 µM | UACC-62 > 100 µM | UO-31 > 100 µM
